According to patent US11267811B2, “Small molecule inhibitors of galectin-3” (BRISTOL-MYERS SQUIBB COMPANY, priority 2017, dated 2022):
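Also: compounds preincubated 30 min with hGal-3, then 1 h with B-ASF, detection via terbium anti-His antibody and streptavidin d2. Control with B-ASF counts as full signal, omitting B-ASF as background.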

What follows are molecules tested against His-tagged recombinant human Gal-3 (hGal-3) (Homo sapiens (Human), UniProt P17931) (assay: Gal-3 HTRF assay (His-tagged hGal-3 binding to B-ASF)). Details: HTRF, hGal-3 15 nM, B-ASF 15 nM; read-out: hGal-3 IC50.
Sequence of His-tagged recombinant human Gal-3 (hGal-3) (P17931 whole entry): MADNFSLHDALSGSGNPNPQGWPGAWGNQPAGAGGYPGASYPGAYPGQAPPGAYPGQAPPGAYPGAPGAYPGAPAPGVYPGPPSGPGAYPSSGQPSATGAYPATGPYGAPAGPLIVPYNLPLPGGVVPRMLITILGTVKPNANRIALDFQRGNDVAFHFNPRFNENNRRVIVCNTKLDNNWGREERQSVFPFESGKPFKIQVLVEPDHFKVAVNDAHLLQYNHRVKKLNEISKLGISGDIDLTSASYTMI
Molecule `OC[C@H]1O[C@@H](c2nncn2-c2ccccc2OC(F)(F)F)[C@H](O)[C@@H](n2cc(-c3cc(F)c(F)c(F)c3)nn2)[C@H]1O` [Example 102] has an IC50 of 300 nM. For `CC(C)Oc1ccc(-n2cnnc2[C@@H]2O[C@H](CO)[C@H](O)[C@H](n3cc(-c4cc(F)c(F)c(F)c4)nn3)[C@H]2O)cc1` [Example 103], the IC50 was 700 nM. `OC[C@H]1O[C@@H](c2nncn2-c2ccc(Oc3ccccc3)cc2)[C@H](O)[C@@H](n2cc(-c3cc(F)c(F)c(F)c3)nn2)[C@H]1O` [Example 104] showed an IC50 of 820 nM. Molecule `CC(C)Oc1cccc(-n2cnnc2[C@@H]2O[C@H](CO)[C@H](O)[C@H](n3cc(-c4cc(F)c(F)c(F)c4)nn3)[C@H]2O)c1` [Example 105] has an IC50 of 330 nM. In the case of `O=S(=O)(Nc1nccs1)c1ccc(-n2cnnc2[C@@H]2O[C@H](CO)[C@H](O)[C@H](n3cc(-c4cc(F)c(F)c(F)c4)nn3)[C@H]2O)cc1` [Example 106], the IC50 is reported as 760 nM. `OC[C@H]1O[C@@H](c2nncn2-c2ccc3ncccc3c2)[C@H](O)[C@@H](n2cc(-c3cc(F)c(F)c(F)c3)nn2)[C@H]1O` [Example 107] gave an IC50 of 50 nM. `OC[C@H]1O[C@@H](c2nncn2-c2cccc(OCc3ccccc3)c2)[C@H](O)[C@@H](n2cc(-c3cc(F)c(F)c(F)c3)nn2)[C@H]1O` [Example 108] showed an IC50 of 370 nM. Molecule `OC[C@H]1O[C@@H](c2nncn2-c2ccc(-n3cccc3)cc2)[C@H](O)[C@@H](n2cc(-c3cc(F)c(F)c(F)c3)nn2)[C@H]1O` [Example 109] has an IC50 of 520 nM. Work on `Cc1nnc(NS(=O)(=O)c2ccc(-n3cnnc3[C@@H]3O[C@H](CO)[C@H](O)[C@H](n4cc(-c5cc(F)c(F)c(F)c5)nn4)[C@H]3O)cc2)s1` [Example 110] yielded an IC50 of 1550 nM. `OC[C@H]1O[C@@H](c2nncn2-c2ccc(-c3nnn[nH]3)cc2)[C@H](O)[C@@H](n2cc(-c3cc(F)c(F)c(F)c3)nn2)[C@H]1O` [Example 111] was tested, and the IC50 was 820 nM. Work on `OC[C@H]1O[C@@H](c2nncn2-c2cccc(-c3nnn[nH]3)c2)[C@H](O)[C@@H](n2cc(-c3cc(F)c(F)c(F)c3)nn2)[C@H]1O` [Example 112] yielded an IC50 of 640 nM. In the case of `CS(=O)(=O)Nc1cccc(-n2cnnc2[C@@H]2O[C@H](CO)[C@H](O)[C@H](n3cc(-c4cc(F)c(F)c(F)c4)nn3)[C@H]2O)c1` [Example 113], the IC50 is reported as 480 nM. `CNS(=O)(=O)Cc1ccc(-n2cnnc2[C@@H]2O[C@H](CO)[C@H](O)[C@H](n3cc(-c4cc(F)c(F)c(F)c4)nn3)[C@H]2O)cc1` [Example 114] was tested, and the IC50 was 260 nM. Work on `CN(C)S(=O)(=O)c1ccc(-n2cnnc2[C@@H]2O[C@H](CO)[C@H](O)[C@H](n3cc(-c4cc(F)c(F)c(F)c4)nn3)[C@H]2O)cc1` [Example 115] yielded an IC50 of 11100 nM. For `NS(=O)(=O)c1ccc(-n2cnnc2[C@@H]2O[C@H](CO)[C@H](O)[C@H](n3cc(-c4cc(F)c(F)c(F)c4)nn3)[C@H]2O)cc1` [Example 116], the IC50 was 670 nM. `OC[C@H]1O[C@@H](c2nncn2-c2ccc(-n3ccnc3)cc2)[C@H](O)[C@@H](n2cc(-c3cc(F)c(F)c(F)c3)nn2)[C@H]1O` [Example 117] showed an IC50 of 1460 nM. Work on `OC[C@H]1O[C@@H](c2nncn2-c2cc(Cl)cc(C(F)(F)F)c2)[C@H](O)[C@@H](n2cc(-c3cc(F)c(F)c(F)c3)nn2)[C@H]1O` [Example 118] yielded an IC50 of 160 nM. Work on `OC[C@H]1O[C@@H](c2nncn2Cc2ccc(Cl)c(Cl)c2)[C@H](O)[C@@H](n2cc(-c3cc(F)c(F)c(F)c3)nn2)[C@H]1O` [Example 119] yielded an IC50 of 2790 nM. `OC[C@H]1O[C@@H](c2nncn2-c2ccc3ncsc3c2)[C@H](O)[C@@H](n2cc(-c3cc(F)c(F)c(F)c3)nn2)[C@H]1O` [Example 120] gave an IC50 of 30 nM. For `O=C1CCc2cc(-n3cnnc3[C@@H]3O[C@H](CO)[C@H](O)[C@H](n4cc(-c5cc(F)c(F)c(F)c5)nn4)[C@H]3O)ccc2N1` [Example 121], the IC50 was 260 nM. With `OC[C@H]1O[C@@H](c2nncn2-c2cnc3ccccc3c2)[C@H](O)[C@@H](n2cc(-c3cc(F)c(F)c(F)c3)nn2)[C@H]1O` [Example 123] the IC50 was 100 nM. With `OC[C@H]1O[C@@H](c2nncn2-c2ccc3nccnc3c2)[C@H](O)[C@@H](n2cc(-c3cc(F)c(F)c(F)c3)nn2)[C@H]1O` [Example 124] the IC50 was 400 nM. In the case of `OC[C@H]1O[C@@H](c2nncn2-c2ccc3ccncc3c2)[C@H](O)[C@@H](n2cc(-c3cc(F)c(F)c(F)c3)nn2)[C@H]1O` [Example 126], the IC50 is reported as 270 nM. For `OC[C@H]1O[C@@H](c2nncn2Cc2cccs2)[C@H](O)[C@@H](n2cc(-c3cc(F)c(F)c(F)c3)nn2)[C@H]1O` [Example 127], the IC50 was 1280 nM. Molecule `CS(=O)(=O)c1cccc(-n2cnnc2[C@@H]2O[C@H](CO)[C@H](O)[C@H](n3cc(-c4cc(F)c(F)c(F)c4)nn3)[C@H]2O)c1` [Example 128] has an IC50 of 310 nM. `CS(=O)(=O)c1cc(-n2cnnc2[C@@H]2O[C@H](CO)[C@H](O)[C@H](n3cc(-c4cc(F)c(F)c(F)c4)nn3)[C@H]2O)ccc1F` [Example 129] gave an IC50 of 600 nM. `OC[C@H]1O[C@@H](c2nncn2Cc2nc3ccccc3s2)[C@H](O)[C@@H](n2cc(-c3cc(F)c(F)c(F)c3)nn2)[C@H]1O` [Example 130] gave an IC50 of 320 nM. For `OC[C@H]1O[C@@H](c2nncn2-c2ccc(Cl)c(Cl)c2)[C@H](O)[C@@H](n2cc(-c3cc(F)c(F)c(F)c3)nn2)[C@H]1O` [Example 131, (2S,3R,4R,5R,6R)-2-(4-(3,4-dichlorophenyl)-4H-1,2,4-triazol-3-yl)-6-(hydroxymethyl)-4-(4-(3,4,5-trifluorophenyl)-1H-1,2,3-triazol-1-yl)tetrahydro-2H-pyran-3,5-diol], the IC50 was 100 nM. `Cc1nc2ccc(-n3cnnc3[C@@H]3O[C@H](CO)[C@H](O)[C@H](n4cc(-c5cc(F)c(F)c(F)c5)nn4)[C@H]3O)cc2s1` [Example 132] gave an IC50 of 20 nM. `COc1cc(-n2cnnc2[C@@H]2O[C@H](CO)[C@H](O)[C@H](n3cc(-c4cc(F)c(F)c(F)c4)nn3)[C@H]2O)ccn1` [Example 133] gave an IC50 of 200 nM. `COc1cccc(-n2cnnc2[C@@H]2O[C@H](CO)[C@H](O)[C@H](n3cc(-c4cc(F)c(F)c(F)c4)nn3)[C@H]2O)n1` [Example 134] was tested, and the IC50 was 570 nM. Work on `OC[C@H]1O[C@@H](c2nncn2-c2cc(Cl)ccc2Cl)[C@H](O)[C@@H](n2cc(-c3cc(F)c(F)c(F)c3)nn2)[C@H]1O` [Example 135] yielded an IC50 of 30 nM. `Cn1c(=O)sc2cc(-n3cnnc3[C@@H]3O[C@H](CO)[C@H](O)[C@H](n4cc(-c5cc(F)c(F)c(F)c5)nn4)[C@H]3O)ccc21` [Example 136] gave an IC50 of 310 nM. `Cc1nc2cc(F)c(-n3cnnc3[C@@H]3O[C@H](CO)[C@H](O)[C@H](n4cc(-c5cc(F)c(F)c(F)c5)nn4)[C@H]3O)cc2s1` [Example 137] was tested, and the IC50 was 80 nM. `Cc1ncc(Cl)cc1-n1cnnc1[C@@H]1O[C@H](CO)[C@H](O)[C@H](n2cc(-c3cc(F)c(F)c(F)c3)nn2)[C@H]1O` [Example 138] was tested, and the IC50 was 40 nM. With `Cc1nc2cccc(-n3cnnc3[C@@H]3O[C@H](CO)[C@H](O)[C@H](n4cc(-c5cc(F)c(F)c(F)c5)nn4)[C@H]3O)c2s1` [Example 139] the IC50 was 260 nM. Work on `OC[C@H]1O[C@@H](c2nncn2-c2cc(F)cc(Cl)c2)[C@H](O)[C@@H](n2cc(-c3cc(F)c(F)c(F)c3)nn2)[C@H]1O` [Example 140] yielded an IC50 of 130 nM.
